The results in this text go back to patent US20060167098A1, “Method for the treatment of diseases linked to an accumulation of triglycerides and cholesterol” (Institut National De La Sante ET De LA Recherche Medicale …, priority 2003, published 2006).

A short description of assay [1]: Body fat mass by DEXA in genetically obese ob/ob mice. It counts as in vivo. The following applies: 100 mg/kg/day. From the text:
Six to 8 weeks old male (Crl:CD-1(ICR)BR) Swiss mice, and six to ten weeks old male RjOrl Swiss mice (i.e. lean mice) weighing 28 and 32 grams were purchased from Dépré (Saint Doulchard, France). Ten to 12 weeks old ob/ob male (C57BL/6-ob) mice (i.e. obese mice), weighing 40 to 44 grams were purchased from Janvier (Le-Genest-St-Isle, France). In one experiment, younger ob/ob mice (5-6 weeks old) weighing 25-26 grams were also studied. In genetically obese ob/ob mice, a mutation on the gene of leptin prevents the normal production of this hormone, thus increasing appetite and decreasing energy consumption (Friedman J. M., Halaas J. L., 1998, Nature 395 : 763-770). […] The animals were acclimatized for one to two weeks before the start of experiments.
D,L-β-Aminoisobutyric acid (BAIBA) was purchased from Sigma-Aldrich. BAIBA has been administered in drinking water at the dose of 100 mg/kg/day or 500 mg/kg/day for 6 weeks, 2 months or 4 months according to the experiments.
The in vivo determination of body fat mass in anesthetized mice has been performed by “DEXA” (Dual Energy X-ray Absorptiometry) (Pietriobelli A., Formica C., Wang Z., Heymsfield S. B., 1996, Am. J. Physiol. 271 (Endocrinol. Metab. 34): E941-E951)). […] It is noteworthy that DEXA also gives for each investigated animal its lean mass that is the total amount of water and proteins (in grams) in the body (excluding the head). Therefore, for a given animal, DEXA allows the determination of the percentage of body fat which is its body fat mass divided by the sum of its body lean and fat masses (fat mass/(lean mass+fat mass)). The “DEXA” apparatus was a Piximus® from Lunar Corporation (Madison, Wis.). Mice were anesthetized thanks to a mixture of xylazine and ketamine.
Procedure 1: the animals were not fasted before DEXA investigations. The first DEXA measurement was performed one day before the beginning of the investigation (T0). Afterwards, DEXA measurements have been respectively performed two weeks (T2) and six weeks (T6) after the beginning of the treatment. […]

Assay [2] is described as follows: Plasma lipids in Swiss mice fed with a western diet, 6 weeks, 48-hour fast. The note with it: 100 mg/kg/day. It counts as in vivo. The protocol:
Plasma lipids (triglycerides, total cholesterol, phospholipids) were measured on an automatic analyser (Hitachi 717®). The commercial kits used to assess triglycerides, total cholesterol and phospholipids on this analyser were all from bioMérieux (references 61238, 61219 and 61491, respectively). Plasma non esterified fatty acids (NEFA) were assessed by using a commercial kit (Wako, reference 994-75409). Hepatic and plasma lipids were performed at the end of six weeks of treatment in animals that have been fasted for 48 hours. Triglycerides and HDL-cholesterol were also assessed after 2 months (in the fed state) or after 4 months of treatment (after an overnight fast).
Plasma lipids were assessed in mice fed with the western diet (WD) and receiving or not of 100 mg/kg/day of β-aminoisobutyric acid (BAIBA) in the drinking water (8 mice in each group). For comparison, the experiment also included a group of mice (n=8) fed with a standard diet (SD). These animals were those used for the determination of body fat by DEXA and liver lipids (see above, paragraph I-c and II-a, respectively). After the last DEXA measurement (after 6 weeks of treatment), mice were allowed to recover from the anaesthesia for ca. 2 days and were then submitted to a 48-hour period of fast. At the end of this fasting period, a sample of blood was collected (from the retroorbital sinus) […] and plasma triglycerides, phospholipids, total cholesterol and non-esterified fatty acids (NEFA) were subsequently determined. After 6 weeks, the western diet was responsible for an increase of all plasma lipids, but the most affected lipids were triglycerides.

For `CC(CN)C(=O)O` (racemic) [BAIBA, D,L-β-Aminoisobutyric acid], the “gain of body fat” value in assay [1] (10-12 weeks old ob/ob mice, first two weeks) is reported as 4.65±0.35 grams. The “reduction of body fat” value in assay [1] (10-12 weeks old ob/ob mice, first two weeks, not significant) was determined as 11%. In addition, the “gain of body fat” value in assay [1] (ob/ob mice, T0-T6) came to 7.30±0.61 grams. Further, in assay [2], the “decrease of plasma NEFA” value came to 16%, the “decrease of total cholesterol” value was determined as 4%, the “plasma NEFA” value turned out to be 0.88 ± 0.06 mmol/L and the plasma total cholesterol worked out at 6.71 ± 0.27 mmol/L. Moreover, the plasma triglycerides in assay [2] was 1.54 ± 0.13 mmol/L. Moreover, the “reduction of plasma triglycerides” value in assay [2] (not significant) is recorded as 22%.
